According to patent US10881636B2, “Dihydroartemisinin-steroid conjugate and preparation method and application thereof” (YUNBAIYAO ZHENGWU SCIENCE AND TECHNOLOGY (SHANGHAI) CO., …, priority 2017, dated 2021):
Where two headings read alike, the source gives them in different places.

Columns and labels:
[1] = Cytotoxicity on normal cells, CCK-8 assay; type: cell-based; conditions: African green monkey
Procedure: (§1) African green monkey kidney cells-Vero cells (CCL-81) were used as normal cells to evaluate the cytotoxic effects of the compounds. Under the intervention of such compounds, the living cells can be stained using a cell proliferation-cytotoxicity assay kit Cell Counting Kit-8 (CCK-8 solution), and the OD value was measured to reflect the survival and growth state of the cells, that is, the cell survival rate (%) and the cell growth inhibition rate (%).
(§2) The culture solution containing 10% FBS was regarded as a complete medium. […] After all the cells were cultured to logarithmic growth phase, the tests were performed as follows.
(§3) The adherent cells were digested by pancreatin and suspended to directly collect cells. The cell suspension was centrifuged, and after counted, the cells were seeded in a transparent 96-well culture plate and adjusted to 5×10^3 cells/100 μL/well with respective complete mediums. At the same time, each plate was provided with blank wells without cells and samples and control wells with cells but without samples. The 96-well culture plates were then cultured overnight in a 37° C., 5% CO2 incubator. The test compounds were added at 50 μL/well on the next day, and respective complete mediums were added at the same amount. […] While for the control wells and blank wells, complete mediums rather than the compound samples were added, where the complete culture medium was also added at 100 μL/well. […] 2 h before the end of the incubation, the culture medium was removed, and complete culture medium containing 10% CCK-8 solution was added at 100 μL/well.
(§4) The CC50 was calculated according to the survival rate (%) of Vero cells to reflect the cytotoxic effect of the compounds. The IC50 was calculated according to the growth inhibition (%) of the tumor cells to reflect the antitumor activity of the samples.

[2] = test system: 786-O cells (CRL-1932); test: Tumor cell growth inhibition, CCK-8 assay; type: cell-based; conditions: Homo sapiens, 786-0; 48 h, CCK-8, growth inhibition
Procedure: as §1, §2, §3, §4

[3] = test system: HeLa cells (CCL-2); test: Tumor cell growth inhibition, CCK-8 assay; type: cell-based; conditions: Homo sapiens, 48 h, CCK-8, growth inhibition
Procedure: as §1, §2, §3, §4

[4] = test system: Jurkat cells (TIB-152); test: Tumor cell growth inhibition, CCK-8 assay; type: cell-based; conditions: Homo sapiens, 48 h, CCK-8, growth inhibition
Procedure: as §1, §2, §3, §4

[5] = test system: MCF7 cells (HTB-22); test: Tumor cell growth inhibition, CCK-8 assay; type: cell-based; conditions: Homo sapiens, 48 h, CCK-8, growth inhibition
Procedure: as §1, §2, §3, §4

[6] = test system: PC-3 cells (CRL-1435); test: Tumor cell growth inhibition, CCK-8 assay; type: cell-based; conditions: Homo sapiens, 48 h, CCK-8, growth inhibition, read-out: PC3 IC50
Procedure: as §1, §2, §3, §4

[7] = test system: A549; test: Tumor cell growth inhibition; type: cell-based; conditions: Homo sapiens
Procedure: as §3, §4

[8] = test system: DU-145; test: Inhibitory effects on various tumor cells; type: cell-based; conditions: Homo sapiens; DU-145 cells
Procedure: as §3, §4

[9] = test system: HC7116; test: Inhibitory effects on various tumor cells; type: cell-based
Procedure: as §3, §4

[10] = test system: HEPG-2; test: Inhibitory effects on various tumor cells; type: cell-based; conditions: Homo sapiens, HepG2; HEPG-2 cells
Procedure: as §3, §4

[11] = test system: K562; test: Inhibitory effects on various tumor cells; type: cell-based; conditions: Homo sapiens
Procedure: as §3, §4

[12] = test system: Kasumi; test: Inhibitory effects on various tumor cells; type: cell-based
Procedure: as §3, §4

[13] = test system: NB4; test: Inhibitory effects on various tumor cells; type: cell-based; conditions: Homo sapiens, NB-4
Procedure: as §3, §4

[14] = test system: OV-90; test: Inhibitory effects on various tumor cells; type: cell-based; conditions: Homo sapiens; OV-90 cells
Procedure: as §3, §4

[15] = test system: RCC-4; test: Inhibitory effects on various tumor cells; type: cell-based; conditions: Homo sapiens, RCC4; RCC-4 cells
Procedure: as §3, §4

[16] = test system: RCC4 vhl; test: Inhibitory effects on various tumor cells; type: cell-based; conditions: Homo sapiens
Procedure: as §3, §4

[17] = test system: SW1990; test: Inhibitory effects on various tumor cells; type: cell-based; conditions: Homo sapiens
Procedure: as §3, §4

[18] = test system: U2OS; test: Inhibitory effects on various tumor cells; type: cell-based; conditions: Homo sapiens
Procedure: as §3, §4

[19] = test system: U87; test: Inhibitory effects on various tumor cells; type: cell-based; conditions: Homo sapiens, U-87 MG
Procedure: as §3, §4

[20] = test system: human non-small cell lung cancer cells A549; test: Xenograft model of human lung cancer cell A549; conditions: nude mice, 10 mg/kg intraperitoneal, 28 days; for deaths during treatment: JZ-02 group 9 mice, paclitaxel group 5 mice; for tumor inhibition rate: from tumor tissue weight
Source text: 23 BALB/c nude mice, weighing 18-22 g and aged 2-4 weeks, were used in the experiment.

[21] = Vero normal cells, 48 h, CCK-8, cell survival rate, read-out: Vero CC50

Row | Compound | CC50 at 48 h [1, 21] | IC50 [2] | IC50 [3] | IC50 [4] | IC50 [5] | IC50 [6] | IC50 [7] | IC50 [8] | IC50 [9] | IC50 [10] | IC50 [11] | IC50 [12] | IC50 [13] | IC50 [14] | IC50 [15] | IC50 [16] | IC50 [17] | IC50 [18] | deaths during treatment [20] | CC50 at 48 h [1] | also measured
1 | C[C@H]1C(O[C@@H]2CC[C@@]3(C)C(C2)C[C@H](O)C2C3CC[C@@]3(C)C2CC[C@@H]3[C@H](C)CCC(=O)O)OC2OC3(C)CCC4[C@H](C)CCC1[C@@]24OO3 (stereo partly drawn) [JZ-2] | 7810 nM | 60 nM | 40 nM | 240 nM | 3390 nM | 260 nM | 20 nM | 625 nM | 157 nM | 500 nM | 157 nM | 157 nM | 157 nM | 157 nM | 2500 nM | 30000 nM | 517 nM | 357 nM | no death | – | IC50 [19]: 517 nM; tumor growth (tumor growth curve, FIG. 1) [20]: significantly inhibit the tumor growth; tumor inhibition rate [20]: 58%
2 | CC(C)[C@@H](C)/C=C/[C@@H](C)[C@H]1CCC2C3=CC=C4CC(OC5OC6OC7(C)CCC8[C@H](C)CCC([C@H]5C)[C@@]68OO7)CC[C@]4(C)C3CC[C@@]21C (stereo partly drawn) [JZ-6] | – | 100000 nM | 100000 nM | 34000 nM | 45000 nM | 100000 nM | 6330 nM | – | – | – | – | – | – | – | – | – | – | – | – | 100000 nM | –
3 | C[C@H]1C(O[C@@H]2CC[C@@]3(C)C(C2)C[C@@H](O)C2C3CC[C@@]3(C)C2CC[C@@H]3[C@H](C)CCC(=O)O)OC2O[C@@]3(C)CCC4[C@H](C)CCC1[C@@]24OO3 (stereo partly drawn) [JZ-4] | 100000 nM | 100000 nM | 25000 nM | 32000 nM | 35000 nM | 25000 nM | 2400 nM | – | – | – | – | – | – | – | – | – | – | – | – | – | –
4 | C[C@H]1[C@@H](O)O[C@@H]2O[C@@]3(C)CC[C@H]4[C@H](C)CC[C@@H]1[C@@]24OO3 [Dihydroartemisinin] | – | 1100 nM | 1660 nM | 100000 nM | 100000 nM | 2020 nM | 2960 nM | – | – | – | – | – | – | – | – | – | – | – | – | 5880 nM | –
5 | CC(=O)O[C@H]1C(=O)[C@@]2(C)[C@H]([C@H](OC(=O)c3ccccc3)[C@]3(O)C[C@H](OC(=O)[C@H](O)[C@@H](NC(=O)c4ccccc4)c4ccccc4)C(C)=C1C3(C)C)[C@]1(OC(C)=O)CO[C@@H]1C[C@@H]2O [Taxol, paclitaxel, reference compound] | – | 6 nM | 6 nM | 30 nM | 10 nM | 6 nM | 6 nM | 10 nM | 10 nM | 10 nM | 10 nM | 10 nM | 10 nM | 10 nM | 10000 nM | 30000 nM | 10 nM | 10 nM | one death | 1500 nM | tumor inhibition rate [20]: 52%
